{"source": "ChEMBL document CHEMBL3046582", "about": "“Antifeedant activity of sesquiterpenes from celastraceae” (1997)", "assay_type_in_all_cases": "functional", "key": {"Spodoptera littoralis [1]": {"system": "Spodoptera littoralis", "test": "Antifeedant activity against newly ecdysed fifth-instar larval stage of Spodoptera littoralis in compound-pretreated lettuce leaf disks assessed as consumed area of leaf disks at 0.1 ug/cm'2 measured at 30 min intervals for 4-5 hr post-drug exposure by choice test"}, "Spodoptera littoralis [2]": {"system": "Spodoptera littoralis", "test": "Antifeedant activity against newly ecdysed fifth-instar larval stage of Spodoptera littoralis in compound-pretreated lettuce leaf disks assessed as consumed area of leaf disks at 10 ug/cm'2 measured at 30 min intervals for 4-5 hr post-drug exposure by choice test"}, "Spodoptera littoralis [3]": {"system": "Spodoptera littoralis", "test": "Antifeedant activity against newly ecdysed fifth-instar larval stage of Spodoptera littoralis in compound-pretreated lettuce leaf disks assessed as consumed area of leaf disks at 0.01 ug/cm'2 measured at 30 min intervals for 4-5 hr post-drug exposure by choice test"}, "Spodoptera littoralis [4]": {"system": "Spodoptera littoralis", "test": "Antifeedant activity against newly ecdysed fifth-instar larval stage of Spodoptera littoralis in compound-pretreated lettuce leaf disks assessed as consumed area of leaf disks at 1 ug/cm'2 measured at 30 min intervals for 4-5 hr post-drug exposure by choice test"}}, "data": [{"smiles": "COCCCC[C@@H]1[C@@H]2[C@@H](OC(C)=O)[C@@]3(OC2(C)C)[C@@](OC(C)=O)([C@@H](OC(C)=O)CC[C@]3(C)O)[C@@H]1OC(=O)c1ccccc1", "values": [{"measurement": "FR50", "setting": "Spodoptera littoralis [1]", "result": 0.23}, {"measurement": "FR50", "setting": "Spodoptera littoralis [2]", "result": 0}, {"measurement": "FR50", "setting": "Spodoptera littoralis [3]", "result": 0.69}, {"measurement": "FR50", "setting": "Spodoptera littoralis [4]", "result": 0}]}]}
